Measured values published in patent EP4800016A1, “METTL3 INHIBITOR” (Hangzhou Bangshun Pharmaceutical Co., Ltd., priority 2023, dated 2025).

Legend:
[1] = biological target: T1, METTL3/14 (Homo sapiens, UniProt Q86U44); experiment: METTL3/14 methyltransferase activity assay (HTRF); type: biochemical; settings: 10 concentrations, 3-fold dilution from 10 µM
T1 construct: purchased active motif 31570
Experimental: The final initial concentration of the compound was 10 µM, with 3-fold serial dilution to give a total of 10 concentrations. 100 nL of the compound was transferred to a 384-well plate and centrifuged at 1000 RPM. 2.5 µL of METTL3/14 (active motif, Cat No. 31570) was added to the test wells and incubated at 25°C for 10 min. 2.5 µL of METTL3-Biotin & SAM (GenScript) was added to the test wells andincubated at 25°C for 60 min. 2.5 µL of YTHDF1 (active motif, Cat No. 31608) was added to the test wells and centrifuged at 1000 RPM. 2.5 µL of Streptavidin-Tb (Perkin Elmer Cat No. 61SATLB) & Flag-mede (Perkin Elmer Cat No. 61FG2DLA) was added to the test wells and centrifuged at 1000 RPM. Incubated at 25°C for 60 min. HTRF was measured using a Plate reader. The results of each compound are shown in Table 1, where A+indicates <10nM, A indicates 10-100nM, B indicates 100-1000nM, and C indicates >1000nM.

[2] = tested on: Kasumi-1 cells; experiment: Kasumi-1 cell inhibitory activity (CellTiter-Glo, 5 days); type: cell-based; settings: Homo sapiens, 120 h, 5 days incubation, CellTiter-Glo luminescence
Experimental: Test compounds were dissolved in DMSO to prep are a 250×final concentration solution. The initial concentration was 10 µM with 3-fold dilution, resulting in a total of ten concentration points. 4 µL of the compound solution was added to 96 µL of cell culture medium to dilute it to 10×the final concentration. On the first day, Kasumi-1 cells (purchased from Precedo) were suspended in cell culture medium at the desired density, 90 µL of the cell suspension was added to a 96-well plate, and 10 µL of 10×compound solution was added for incubation, with a final DMSO concentration of 0.4% in each well. Incubated at 37 °C, 5% CO2 for 5 days. Before measurement after 5 days, the test plate was placed at room temperature, 50 µL of CellTiter-Glo® reagent (purchased from Promega, Cat. No. G7573) was added, mixed on a shaker for 2 minutes to lyse the cells, and incubated at room temperature for 10 minutes to stabilize the […] signal. Luminescence values were recorded using Paradigm, and the response-concentration curve was fitted with Graphpad Pr ism 8.0 to calculate IC50values. The results of each compound are shown in Table2, where A indicates <100nM, B indicates 100-1000nM, and C indicates >1000nM. [formula]

T1 sequence (Q86U44 whole entry): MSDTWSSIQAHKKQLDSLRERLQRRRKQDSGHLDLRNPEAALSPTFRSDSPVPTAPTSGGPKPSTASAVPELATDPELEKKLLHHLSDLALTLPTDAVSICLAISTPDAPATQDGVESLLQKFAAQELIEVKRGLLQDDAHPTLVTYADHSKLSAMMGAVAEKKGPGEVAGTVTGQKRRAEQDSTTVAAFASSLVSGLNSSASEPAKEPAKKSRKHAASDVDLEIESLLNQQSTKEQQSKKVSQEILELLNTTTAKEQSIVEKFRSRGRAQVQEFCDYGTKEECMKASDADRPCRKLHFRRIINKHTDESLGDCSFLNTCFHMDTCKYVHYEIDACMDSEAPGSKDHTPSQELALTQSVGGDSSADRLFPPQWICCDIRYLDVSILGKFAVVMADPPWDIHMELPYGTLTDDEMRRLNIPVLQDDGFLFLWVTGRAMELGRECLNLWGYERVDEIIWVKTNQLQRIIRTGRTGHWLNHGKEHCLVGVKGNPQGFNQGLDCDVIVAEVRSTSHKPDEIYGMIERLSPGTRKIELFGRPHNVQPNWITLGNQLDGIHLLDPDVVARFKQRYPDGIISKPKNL
T1 sequence (Q9HCE5 whole entry partner): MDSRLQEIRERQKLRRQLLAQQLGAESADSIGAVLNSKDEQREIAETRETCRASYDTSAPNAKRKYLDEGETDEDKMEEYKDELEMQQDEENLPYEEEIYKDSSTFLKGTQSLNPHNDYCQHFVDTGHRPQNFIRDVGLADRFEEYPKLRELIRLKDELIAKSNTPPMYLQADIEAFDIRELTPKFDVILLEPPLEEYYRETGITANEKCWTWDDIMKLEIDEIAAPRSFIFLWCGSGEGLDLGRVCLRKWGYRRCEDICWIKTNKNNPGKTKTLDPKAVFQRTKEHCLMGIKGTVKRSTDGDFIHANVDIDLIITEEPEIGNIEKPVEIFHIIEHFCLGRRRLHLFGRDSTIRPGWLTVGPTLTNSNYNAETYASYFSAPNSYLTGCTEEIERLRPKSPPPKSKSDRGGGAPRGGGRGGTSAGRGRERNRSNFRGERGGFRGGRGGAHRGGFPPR

| SMILES | IC50 [1] | IC50 [2] |
| --- | --- | --- |
| O=C(NCc1ccc2cc(CNCC3CCC3)[nH]c2c1)c1cc(=O)n2cc3c(cc2n1)OCCO3 [Example 20, N-((2-(((Cyclobutylmethyl)amino)methyl)-1H-indol-6-yl)methyl)-9-oxo-2,3-dihydro-9H-[1,4]dioxolo[2',3':4,5]pyrido[1,2-a]pyrimidine-7-carboxamide] | 10 to 100 nM | 100 to 1000 nM |
| O=C(NCc1ccc2cc(CNCC3CC(F)(F)C3)[nH]c2c1)c1cc(=O)n2cc3c(cc2n1)OCO3 [Example 26, N-((2-((((3,3-Difluorocyclobutyl)methyl)amino)methyl)-1H-indol-6-yl)methyl)-8-oxo-8H-[1,3]dioxolo[4',5':4,5]pyrido[1,2-a]pyrimidine-6-carboxamide] | 10 to 100 nM | 100 to 1000 nM |
| O=C(NCc1cc2[nH]c(CNCC3CCC3)cc2s1)c1cc(=O)n2cc3c(cc2n1)OCO3 [Example 32, N-((5-(((Cyclobutylmethyl)amino)methyl)-4H-thieno[3,2-b]pyrrol-2-yl)methyl)-8-oxo-8H-[1,3]dioxolo[4',5':4,5]pyrido[1,2-a]pyrimidine-6-carboxamide] | 10 to 100 nM | 100 to 1000 nM |
| O=C(NCc1ccc2cc(CNCC34CC(F)(C3)C4)[nH]c2c1)c1cc(=O)n2cc3c(cc2n1)OCO3 [Example 36, N-((2-((((3-Fluorobicyclo[1.1.1]pentan-1-yl)methyl)amino)methyl)-1H-indol-6-y1)methyl)-8-oxo-8H-[1,3]dioxolo[4',5':4,5]pyrido[1,2-a]pyrimidine-6-carboxamide] | < 10 nM | < 100 nM |
| O=C(NCc1ccc2cc(CNC3CCC(F)(F)C3)[nH]c2c1)c1cc(=O)n2cc3c(cc2n1)OCO3 (centres unmarked) [Example 38, N-((2-(((3,3-Difluorocyclopentyl)amino)methyl)-1H-indol-6-yl)methyl)-8-oxo-8H-[1,3]dioxolo[4',5':4,5]pyrido[1,2-a]pyrimidine-6-carboxamide] | < 10 nM | 100 to 1000 nM |
| O=C(NCc1cn2cc(CNCC3CCC3)ccc2n1)c1cc(=O)n2cc3c(cc2n1)OCO3 [Example 41, N-((6-(((cyclobutylmethyl)amino)methyl)imidazo[1,2-a]pyridin-2-yl)methyl)-8-oxo-8H-[1,3]dioxolo[4',5':4,5]pyrido[1,2-a]pyrimidine-6-carboxamide] | < 10 nM | 100 to 1000 nM |
| O=C(NCc1ccc2cc(CNCC3CCC3)[nH]c2c1)c1cn2ncc3c2c(n1)NCCO3 [Example 44, N-((2-(((Cyclobutylmethyl)amino)methyl)-1H-indol-6-yl)methyl)-7,8-dihydro-6H-9-oxa-2,2a,5,6-tetraazabenzo[cd]azulene-4-carboxamide] | 10 to 100 nM | 100 to 1000 nM |
| O=C(NCc1ccc2cc(CNCC3CCC3)[nH]c2c1)c1cn2ncc3c2c(n1)NCCC3 [Example 45, N-((2-(((Cyclobutylmethyl)amino)methyl)-1H-indol-6-yl)methyl)-6,7,8,9-tetrahydro-2,2a,5,6-tetraazabenzo[cd]azulene-4-carboxamide] | 10 to 100 nM | 100 to 1000 nM |
| O=C(NCc1ccc2cc(CNCC34CC(F)(C3)C4)[nH]c2c1)c1cc(=O)n2cc3c(cc2n1)OCCO3 [Example 46, N-((2-((((3-Fluorobicyclo[1.1.1]pentan-1-yl)methyl)amino)methyl)-1H-indol-6-yl)methyl)-9-oxo-2,3-dihydro-9H-[1,4]dioxolo[2',3':4,5]pyrido[1,2-a]pyrimidine-7-carboxamide] | < 10 nM | < 100 nM |
| CC1(CNCc2cc3ccc(CNC(=O)c4cc(=O)n5cc6c(cc5n4)OCO6)cc3[nH]2)CCC1 [Example 51, N-((2-((((1-Methylcyclobutyl)methyl)amino)methyl)-1H-indol-6-yl)methyl)-8-oxo-8H-[1,3]dioxolo[4',5':4,5]pyrido[1,2-a]pyrimidine-6-carboxamide] | < 10 nM | 100 to 1000 nM |
| CC1(CNCc2cc3ccc(CNC(=O)c4cc(=O)n5cc6c(cc5n4)OCCO6)cc3[nH]2)CCC1 [Example 52, N-((2-((((1-Methylcyclobutyl)methyl)amino)methyl)-1H-indol-6-yl)methyl)-9-oxo-2,3-dihydro-9H-[1,4]dioxino[2',3':4,5]pyrido[1,2-a]pyrimidine-7-carboxamide] | < 10 nM | 100 to 1000 nM |
| CC1(CNCc2cc3ccc(CNC(=O)c4cc(=O)n5cc6c(cc5n4)OCO6)cc3[nH]2)CC(F)(F)C1 [Example 53, N-((2-((((3,3-Difluoro-1-methylcyclobutyl)methyl)amino)methyl)-1H-indol-6-yl)methyl)-8-oxo-8H-[1,3]dioxolo[4',5':4,5]pyrido[1,2-a]pyrimidine-6-carboxamide] | < 10 nM | 100 to 1000 nM |
| CC1(CNCc2cc3ccc(CNC(=O)c4cc(=O)n5cc6c(cc5n4)OCCO6)cc3[nH]2)CC(F)(F)C1 [Example 54, N-((2-((((3,3-Difluoro-1-methylcyclobutyl)methyl)amino)methyl)-1H-indol-6-yl)methyl)-9-oxo-2,3-dihydro-9H-[1,4]dioxino[2',3':4,5]pyrido[1,2-a]pyrimidine-7-carboxamide] | < 10 nM | 100 to 1000 nM |
| [2H]C([2H])(NCc1cc2ccc(CNC(=O)c3cc(=O)n4cc5c(cc4n3)OCO5)cc2[nH]1)C1CCC1 [Example 71, N-((2-(((Cyclobutylmethyl-d2)amino)methyl)-1H-indol-6-yl)methyl)-8-oxo-8H-[1,3]dioxolo[4',5':4,5]pyrido[1,2-a]pyrimidine-6-carboxamide] | < 10 nM | < 100 nM |
| [2H]C([2H])(NCc1cc2ccc(CNC(=O)c3cc(=O)n4cc5c(cc4n3)OCO5)cc2[nH]1)C12CC(F)(C1)C2 [Example 72, N-((2-((((3-Fluorobicyclo[1.1.1]pentan-1-yl)methyl-d2)amino)methyl)-1H-indol-6-yl)methyl)-8-oxo-8H-[1,3]dioxolo[4',5':4,5]pyrido[1,2-a]pyrimidine-6-carboxamide] | < 10 nM | < 100 nM |
| O=C(NCc1ccc2cc(CNCC34CC(CO3)C4)[nH]c2c1)c1cc(=O)n2cc3c(cc2n1)OCCO3 [Example 77, N-((2-((((2-oxabicyclo[2.1.1]hexan-1-yl)methyl)amino)methyl)-1H-indol-6-yl)methyl)-9-oxo-2,3-dihydro-9H-[1,4]dioxino[2',3':4,5]pyrido[1,2-a]pyrimidin-7-carboxamide] | < 10 nM | 100 to 1000 nM |
| O=C(NCc1ccc2cc(CN3CCOC4(CCC4)C3)[nH]c2c1)c1cc(=O)n2cc3c(cc2n1)OCCO3 [Example 81, N-((2-((5-oxa-8-azaspiro[3.5]nonan-8-yl)methyl)-1H-indol-6-yl)methyl)-9-oxo-2,3-dihydro-9H-[1,4]dioxino[2',3':4,5]pyrido[1,2-a]pyrimidine-7-carboxamide] | 100 to 1000 nM | – |
| O=C(NCc1ccc2cc(CNCc3ccc(F)s3)[nH]c2c1)c1cc(=O)n2cc3c(cc2n1)OCO3 [Example 82, N-((2-((((5-Fluorothiophen-2-yl)methyl)amino)methyl)-1H-indol-6-yl)methyl)-8-oxo-8H-[1,3]dioxolo[2',3':4,5]pyrido[1,2-a]pyrimidine-6-carboxamide] | 10 to 100 nM | – |
| COC1(CNCc2cc3ccc(CNC(=O)c4cc(=O)n5cc6c(cc5n4)OCO6)cc3[nH]2)CCC1 [Example 83, N-((2-((((1-Methoxycyclobutyl)methyl)amino)methyl)-1H-indol-6-yl)methyl)-8-oxo-8H-[1,3]dioxolo[2',3':4,5]pyrido[1,2-a]pyrimidine-6-carboxamide] | < 10 nM | – |
| O=C(NCc1ccc2cc(CNCC34CC(CO3)C4)[nH]c2c1)c1cc(=O)n2cc3c(cc2n1)OCO3 [Example 84, N-((2-((((2-Oxabicyclo[2.1.1]hexan-1-yl)methyl)amino)methyl)-1H-indol-6-yl)methyl)-8-oxo-8H-[1,3]dioxolo[2',3':4,5]pyrido[1,2-a]pyrimidine-6-carboxamide] | < 10 nM | 100 to 1000 nM |
| O=C(NCc1cc2[nH]c(CNCC3CCC3)cc2cc1F)c1cc(=O)n2cc3c(cc2n1)OCCO3 [Example 85, N-((2-(((Cyclobutylmethyl)amino)methyl)-5-fluoro-1H-indol-6-yl)methyl)-9-oxo-2,3-dihydro-9H-[1,4]dioxino[2',3':4,5]pyrido[1,2-a]pyrimidine-7-carboxamide] | 10 to 100 nM | < 100 nM |
| O=C(NCc1cc2[nH]c(CNCC34CC(CO3)C4)cc2cc1F)c1cc(=O)n2cc3c(cc2n1)OCCO3 [Example 86, N-((2-((((2-Oxabicyclo[2.1.1]hexan-1-yl)methyl)amino)methyl)-5-fluoro-1H-indol-6-yl)methyl)-9-oxo-2,3-dihydro-9H-[1,4]dioxino[2',3':4,5]pyrido[1,2-a]pyrimidine-7-carboxamide] | 10 to 100 nM | 100 to 1000 nM |
